Experimental data taken from patent publication US20260115202A1, “TOPICAL COMPOSITIONS COMPRISING AN ESTETROL COMPONENT AND USE OF SAID COMPOSITIONS FOR WOUND HEALING” (NEURALIS SA, priority 2022, published 2026).
“Also recorded” adds a separate entry of the source.

Assays:
[1] = tested on: human dermal fibroblasts (HDF); test: Scratch wound assay, human dermal fibroblasts; assay type: cell-based; conditions: for concentration of optimal stimulation of fibroblast scratch wound closure / scratch closure compared to vehicle control: HDF; for scratch closure: HDF fifth donor, 24 hours, DMEM with 2% CS-FBS, 0% FBS or 2% FBS; for scratch closure compared to vehicle control: 36 hours
Source text: Primary human dermal fibroblasts (HDF) were isolated from abdominal skin or leg skin. Primary neonatal normal human epidermal keratinocytes (NHEK) were purchased (Lonza). Murine dermal fibroblasts (MDF), murine epidermal keratinocytes (MEK), murine peritoneal macrophages and murine bone marrow were isolated from C57/B16 (wt). NDb (Lepr+/-) or Db (Lepr-/-) mice. Fibroblasts were isolated and cultured in DMEM supplemented with 10% heat inactivated FBS. 1% penicillin/streptomycin and 1% amphotericin B. At least 4 days prior to performing assays cells were switched to DMEM supplemented with 5% charcoal-stripped FBS. Cells were seeded into 24 well plates and cultured to form a confluent monolayer, and then scratched with a 1 ml pipette tip. Wells were treated with E2, E4 and/or various estrogen receptor agonists and antagonists. […] A vehicle control containing the equivalent concentration of EtOH and/or DMSO was included, in addition to an untreated negative control. All treatments were diluted to working concentrations in media supplemented with 2% charcoal-stripped FBS. To visualise scratches at the defined endpoint, cells were stained with crystal violet and imaged on a Nikon E400 brightfield microscope. Scratch closure was determined from multiple independent measurements per well. Scratch assays were performed to quantify the effect of E2 and E4 at varying concentrations on HDF migration (FIG. 14). […] 10^-7M and 10^-6M (152%. 147% and 142% respectively). Thus, both E2 and E4 optimally stimulated fibroblast scratch wound closure at 10^-8M, with the higher magnitude of stimulation observed following E2 treatment. Next, an additional experiment was performed using HDF to a) further confirm the effects of E2 and E4 in fibroblasts from a fifth donor and b) explore the relative effect of including CS-FBS in the cell culture media. Three identical sets of scratch assays were performed (comparing vehicle to E2 or E4 treatment at 10^-7M) in DMEM containing either 2% CS-FBS. 0% FBS or 2% FBS (not CS).

[2] = tested on: murine dermal fibroblasts (MDFs); test: Scratch wound assay, murine dermal fibroblasts; assay type: cell-based, mouse; conditions: MDF, 24 hours, versus vehicle control
Source text: Primary human dermal fibroblasts (HDF) were isolated from abdominal skin or leg skin. Primary neonatal normal human epidermal keratinocytes (NHEK) were purchased (Lonza). Murine dermal fibroblasts (MDF), murine epidermal keratinocytes (MEK), murine peritoneal macrophages and murine bone marrow were isolated from C57/B16 (wt). NDb (Lepr+/−) or Db (Lepr−/−) mice.
Fibroblasts were isolated and cultured in DMEM supplemented with 10% heat inactivated FBS. 1% penicillin/streptomycin and 1% amphotericin B. At least 4 days prior to performing assays cells were switched to DMEM supplemented with 5% charcoal-stripped FBS.
Cells were seeded into 24 well plates and cultured to form a confluent monolayer, and then scratched with a 1 ml pipette tip. Wells were treated with E2, E4 and/or various estrogen receptor agonists and antagonists. […] A vehicle control containing the equivalent concentration of EtOH and/or DMSO was included, in addition to an untreated negative control. All treatments were diluted to working concentrations in media supplemented with 2% charcoal-stripped FBS. To visualise scratches at the defined endpoint, cells were stained with crystal violet and imaged on a Nikon E400 brightfield microscope. Scratch closure was determined from multiple independent measurements per well.

[3] = tested on: mouse bone marrow derived macrophages (BMDM); test: M1-polarised murine bone marrow derived macrophages, qPCR of M1 markers; assay type: cell-based; conditions: for relative iNOS expression (M1 cell phenotype): formulations and E2/E4
Experimental: Bones were flushed with DMEM supplemented with 1% penicillin/streptomycin and 1% amphotericin B. Bone marrow cells were seeded into 12- or 6-well plates at 1×10^6 cells/ml in DMEM supplemented with 10% FBS and 10% L929-conditioned medium to induce differentiation. After 7-10 days, differentiated macrophages were treated with 10^−7M E2 or E4 in serum free growth medium for 16 hours and polarised to M1-type cells using 100 ng/ml IFN-γ and 1 μg/ml LPS. Following 6- or 24-hours polarisation cells were collected for RNA isolation or flow cytometry.
Following treatments, human and murine macrophages were collected in Trizol and RNA isolated using the Trizol plus RNA isolation kit (Invitrogen. Thermo Fisher) according to the manufacturer's instructions. RNA was reverse transcribed to cDNA using GoScript reverse transcriptase (Promega). Quantitative real-time PCR was carried out using 2×Takyon SYBR Green mastermix and a CFX Connect thermocycler. Primers for ERα and ERβ were used to explore changes in ER expression after treatment of MEK and MDF with E2 and E4. To investigate the effect of E2 and E4 on MEK differentiation and the expression of ECM proteins by MDF, primers for. Snail, keratin-1 and fibronectin, collagen I. MMP-2 and MMP-9 were used. Primers for INOS. IL-1B and Tnf-α or Ccl17 were used to assess M1/M2 polarisation status. Primers for GAPDH were used to normalise data. Relative gene expression was set to vehicle controls or M0 expression unless otherwise stated.
For follow up experiments murine bone marrow derived monocytes were isolated, differentiated (L929 media) and polarised to a pro-inflammatory M1 phenotype (IFN-γ and LPS: for 6 or 24 hours), and co-treated with either E2 or E4 at the optimal concentration identified in THP1 cells (10^−7: FIG. 24). […] Experiments were then undertaken with murine bone marrow derived monocytes differentiated to macrophages with 30 ng/ml MCSF, as opposed to L929 conditioned media.

[4] = L929 differentiated BMDM, M1 polarised 6 or 24 hours, 10^−7, versus vehicle
[5] = L929 differentiated BMDM, M1 polarised
[6] = MCSF differentiated BMDM, M1 polarised
[7] = MCSF differentiated BMDM, M1 polarised, 10^−7M, versus vehicle

For C[C@]12CC[C@@H]3c4ccc(O)cc4CC[C@H]3[C@@H]1CC[C@@H]2O [Formulation E2, 17β-estradiol, reference compound], the “concentration of optimal stimulation of fibroblast scratch wound closure” value [1] was 10^−8 M, the scratch closure ([1]; 10^−7M) was “promoted scratch closure” and the “scratch closure compared to vehicle control” value ([1]; 10^−6M) was “no difference in closure was observed”. For the same compound, the “scratch closure compared to vehicle control” value ([1]; 10^−7M) was 141%, the “scratch closure compared to vehicle control” value ([1]; 10^−9M) was “no difference in closure was observed” and the scratch closure [2] was “significantly increased scratch closure compared to vehicle control treatment”. The “expression of M1 markers (iNOS, IL1-β, Tnf-α)” value (from here on “expression of M1 markers”) [3, 4] was “trend toward decreased expression of a range of M1 markers”, the “relative iNOS expression (M1 cell phenotype)” value [3, 5] was “significantly dampened the M1 cell phenotype” and the “expression of M1 marker iNOS” value [3, 6] was “statistically significant reduction in the M1 marker INOS”. The “expression of M1 markers” value [3, 7] was “strong trend towards reduced expression”.
For C[C@]12CC[C@@H]3c4ccc(O)cc4CC[C@H]3[C@@H]1[C@@H](O)[C@@H](O)[C@@H]2O [Formulation E4, 1,3,5 (10)-estratrien-3,15alpha, 16alpha, 17beta-tetrol], the “concentration of optimal stimulation of fibroblast scratch wound closure” value [1] was 10^−8 M, the scratch closure ([1]; 10^−7M) was “promoted scratch closure; also recorded: greatest promotion” and the “scratch closure compared to vehicle control” value ([1]; 10^−6M) was 142%. The “scratch closure compared to vehicle control” value ([1]; 10^−7M) was 147%, the “scratch closure compared to vehicle control” value ([1]; 10^−8M) was 152% and the scratch closure [2] was “significantly increased scratch closure compared to vehicle control treatment”. For the same compound, the “expression of M1 markers” value [3, 4] was “trend toward decreased expression of a range of M1 markers”, the “relative iNOS expression (M1 cell phenotype)” value [3, 5] was “significantly dampened the M1 cell phenotype” and the “expression of M1 marker iNOS” value [3, 6] was “statistically significant reduction in the M1 marker INOS”. The “expression of M1 markers” value [3, 7] was “strong trend towards reduced expression”.
